US9260759B2, “Pyrazoloanthrone and derivatives thereof for the treatment of cancers expressing MISRII” (The General Hospital Corporation, priority 2007, dated 2016)

Key:
[1] = target: T1, BMP type II receptor (BMPRII) (Homo sapiens, UniProt Q13873); assay: BRE-luciferase reporter assay in COS7 cells transfected with BMP type II receptor; type: cell-based; conditions: cotreatment with BMP2 and 10 μM SP600125, BMPRII-transfected COS7
T1 construct: expressed in transfected cells; host or cells: COS7
T1 sequence (Q13873 27-1038): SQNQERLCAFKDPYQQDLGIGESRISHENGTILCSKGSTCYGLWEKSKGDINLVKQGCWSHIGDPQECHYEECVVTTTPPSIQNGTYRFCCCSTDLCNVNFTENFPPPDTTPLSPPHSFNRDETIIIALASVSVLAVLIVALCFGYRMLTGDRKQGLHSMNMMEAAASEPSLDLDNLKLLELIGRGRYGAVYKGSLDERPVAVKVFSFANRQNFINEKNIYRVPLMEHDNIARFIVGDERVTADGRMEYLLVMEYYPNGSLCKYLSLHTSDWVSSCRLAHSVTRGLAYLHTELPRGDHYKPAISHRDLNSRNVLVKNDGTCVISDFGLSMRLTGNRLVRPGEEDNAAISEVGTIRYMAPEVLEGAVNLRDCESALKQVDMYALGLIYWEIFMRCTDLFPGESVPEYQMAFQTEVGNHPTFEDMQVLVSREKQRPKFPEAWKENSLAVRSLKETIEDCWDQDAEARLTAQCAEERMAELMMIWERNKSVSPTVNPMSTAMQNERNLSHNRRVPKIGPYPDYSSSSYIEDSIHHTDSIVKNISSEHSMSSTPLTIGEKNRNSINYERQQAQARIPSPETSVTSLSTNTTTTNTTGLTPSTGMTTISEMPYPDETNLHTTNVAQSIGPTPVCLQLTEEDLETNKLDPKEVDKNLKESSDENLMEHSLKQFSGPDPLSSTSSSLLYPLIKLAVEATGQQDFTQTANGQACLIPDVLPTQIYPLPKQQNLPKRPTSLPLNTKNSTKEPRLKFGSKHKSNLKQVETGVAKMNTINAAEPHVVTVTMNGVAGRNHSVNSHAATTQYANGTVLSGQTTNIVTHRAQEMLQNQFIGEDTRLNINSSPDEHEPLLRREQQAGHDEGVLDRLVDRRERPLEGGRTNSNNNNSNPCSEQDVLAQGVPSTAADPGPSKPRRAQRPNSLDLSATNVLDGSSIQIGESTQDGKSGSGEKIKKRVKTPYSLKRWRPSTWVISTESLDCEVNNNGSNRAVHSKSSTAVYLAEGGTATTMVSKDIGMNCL

4306 cells = assay: MTT proliferation assay, 4306 cells; type: cell-based; conditions: Mus musculus
Experimental: Cells were plated in 96-well plates and treated the day after. Seven days after plating the cell survival was measured using 3-(4,5-dimethylthiazol-2-yl)-2,5-diphenyltetrazolium bromide substrate and measuring the absorbance at 550 nm. […] The results shown are the mean values from three independent experiments. (Error bars represent SEM, ***p<0.001). […] Significant differences (P<0.05) in FIG. 4C were determined by one-way factorial ANOVA.
(Connolly, 2003). The 4306 cells were provided by Dr. Daniela Dinulescu, Brigham and Women's (Boston) (30). Cells were plated at a density of 1000 cells/well in 96-well plates and treated 24 h later. The cell proliferation was measured after 7 days by registering the absorbance at 550 nm. Paclitaxel was manufactured by Ivax Pharmaceuticals and obtained from the MGH pharmacy.

## O=C1c2ccccc2-c2n[nH]c3cccc1c23 [SP600125, anthra[1,9-cd]pyrazol-6(2H)-one]
[1]
  decrease of luciferase activity compared to BMP2 alone: 25%
4306 cells
  inhibition at 2 µM: 50%
